Source: patent US9695155B2, “Herbicidal substituted pyrimidinyloxy benzene compounds” (E. I. DU PONT DE NEMOURS AND COMPANY, priority 2013, dated 2017)

Key:
[1] = tested on: sedge, umbrella; assay: Test B flooded paddy test; format: in vivo, Cyperus difformis; settings: Cyperus difformis, Flood, 250 g ai/ha; 0 to 100 scale where 0 is no effect and 100 is complete control; read-out: Plant response rating, Sedge, Umbrella
Summary of the method: (§1)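 Plants at 2-leaf stage; pots flooded to 3 cm above soil and compound applied directly into paddy water, depth held throughout. After 13 to 15 days in greenhouse, visual rating versus controls on 0 (no effect) to 100 (complete control) scale.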

[2] = tested on: galium; assay: Test C postemergence; format: in vivo, Galium aparine; settings: Galium, post-emergence
Summary of the method: (§2)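 Seeds were sown in loam–sand blend and sprayed preemergence, while plants at 1- to 4-leaf stage (2–18 cm) in peat-based medium received postemergence sprays; test chemicals were formulated in a non-phytotoxic solvent with surfactant. After 13–15 days in a greenhouse, injury was rated visually against controls, 0 (no effect) to 100 (complete control).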

[3] = tested on: rice; assay: Test B flooded paddy test; format: in vivo, Oryza sativa; settings: Oryza sativa; Flood, 250 g ai/ha; 0 to 100 scale where 0 is no effect and 100 is complete control; read-out: Plant response rating, Rice
Summary of the method: as §1

[4] = tested on: barnyardgrass; assay: Test A preemergence; format: in vivo, Echinochloa crus-galli; settings: Echinochloa crus-galli, pre-emergence, 240 h, read-out: Barnyardgrass plant response rating
Summary of the method: (§3)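 Injury scores run from 0, no effect, to 100, complete control, judged by eye against untreated plants roughly 10 days after treatment. Chemicals carried a surfactant in a non-phytotoxic solvent and went onto loam–sand soil preemergence or onto one- to two-leaf seedlings postemergence.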

[5] = tested on: large (Lg) crabgrass; assay: Test C postemergence; format: in vivo, Digitaria sanguinalis; settings: Digitaria sanguinalis, post-emergence
Summary of the method: as §2

[6] = tested on: pigweed; assay: Test A postemergence; format: in vivo, Amaranthus retroflexus; settings: Amaranthus retroflexus, post-emergence
Summary of the method: as §3

[7] = tested on: lambsquarters; assay: Test C postemergence; format: in vivo, Chenopodium album; settings: Chenopodium album, post-emergence
Summary of the method: as §2

[8] = tested on: wheat; assay: Test A preemergence; format: in vivo, Triticum aestivum; settings: Triticum aestivum, pre-emergence, 240 h, read-out: Wheat plant response rating
Summary of the method: as §3

[9] = tested on: yellow nutsedge; assay: Test C postemergence; format: in vivo, Cyperus esculentus; settings: Cyperus, post-emergence
Summary of the method: as §2

[10] = tested on: ragweed; assay: Test C postemergence; format: in vivo, Ambrosia elatior; settings: Ambrosia artemisiifolia, post-emergence
Summary of the method: as §2

[11] = tested on: Italian ryegrass; assay: Test C postemergence; format: in vivo, Lolium multiflorum; settings: Lolium multiflorum, post-emergence
Summary of the method: as §2

[12] = tested on: large (Lg) crabgrass; assay: Test A postemergence; format: in vivo, Digitaria sanguinalis; settings: Digitaria sanguinalis, post-emergence, 240 h
Summary of the method: as §3

[13] = tested on: soybean; assay: Test C postemergence; format: in vivo, Glycine max; settings: Glycine max, post-emergence
Summary of the method: as §2

[14] = tested on: blackgrass; assay: Test C postemergence; format: in vivo, Alopecurus myosuroides; settings: Alopecurus myosuroides, post-emergence
Summary of the method: as §2

[15] = 125 g ai/ha, 0 to 100 scale where 0 is no effect and 100 is complete control
[16] = 500 g ai/ha, 0 to 100 scale, 0 no effect, 100 complete control, approx. 10 days

**Q.** `Clc1cnn(-c2ccccc2Oc2ncc(Br)cn2)c1` [Compound 5, 5-bromo-2-[2-(4-chloro-1H-pyrazol-1-yl)phenoxy]pyrimidine] was tested. Which pest or weed control at 250 g/ha [1] did it give?
**A.** The pest or weed control at 250 g/ha was 50%.

**Q.** And the pest or weed control at 125 g/ha ([2]; 125 g ai/ha, postemergence, read-out: Plant response rating (0 to 100), Galium)?
**A.** Its pest or weed control at 125 g/ha is 80%.

**Q.** What about the pest or weed control at 250 g/ha ([2]; 250 g ai/ha, postemergence, read-out: Plant response rating (0 to 100), Galium) of the same compound?
**A.** Its pest or weed control at 250 g/ha is 95%.

**Q.** And the pest or weed control at 31 g/ha ([2]; Postemergence, 31 g ai/ha, scale 0 to 100 (0 no effect, 100 complete control), 13 to 15 days, read-out: Plant response rating, Galium)?
**A.** The pest or weed control at 31 g/ha was 55%.

**Q.** And the pest or weed control at 62 g/ha ([2]; Postemergence, 62 g ai/ha, scale 0 to 100 (0 no effect, 100 complete control), read-out: Plant response rating, Galium)?
**A.** Its pest or weed control at 62 g/ha is 70%.

**Q.** What about the plant injury at 250 g/ha [3] of the same compound?
**A.** The plant injury at 250 g/ha was 10%.

**Q.** What about the pest or weed control at 125 g/ha [4, 15] of the same compound?
**A.** Its pest or weed control at 125 g/ha is 10%.

**Q.** What about the pest or weed control at 500 g/ha [4, 16] of the same compound?
**A.** Its pest or weed control at 500 g/ha is 80%.

**Q.** What about the pest or weed control at 125 g/ha ([5]; 125 g ai/ha, postemergence, read-out: Plant response rating (0 to 100), Crabgrass, Large) of the same compound?
**A.** Its pest or weed control at 125 g/ha is 20%.

**Q.** What about the pest or weed control at 250 g/ha ([5]; 250 g ai/ha, postemergence, read-out: Plant response rating (0 to 100), Crabgrass, Large) of the same compound?
**A.** Its pest or weed control at 250 g/ha is 20%.

**Q.** What about the pest or weed control at 31 g/ha ([5]; Postemergence, 31 g ai/ha, scale 0 to 100 (0 no effect, 100 complete control), 13 to 15 days, read-out: Plant response rating, Crabgrass, Large) of the same compound?
**A.** The pest or weed control at 31 g/ha was 5%.

**Q.** And the pest or weed control at 62 g/ha ([5]; Postemergence, 62 g ai/ha, scale 0 to 100 (0 no effect, 100 complete control), read-out: Plant response rating, Crabgrass, Large)?
**A.** The pest or weed control at 62 g/ha was 15%.

**Q.** What about the pest or weed control at 125 g/ha ([6]; 125 g ai/ha, 0 to 100 scale where 0 is no effect and 100 is complete control, read-out: Plant response rating, Pigweed) of the same compound?
**A.** Its pest or weed control at 125 g/ha is 100%.

**Q.** What about the pest or weed control at 500 g/ha ([6]; 240 h, 500 g ai/ha, 0 to 100 scale, 0 no effect, 100 complete control, read-out: Plant response rating Pigweed) of the same compound?
**A.** Its pest or weed control at 500 g/ha is 100%.

**Q.** What about the pest or weed control at 125 g/ha ([7]; 125 g ai/ha, postemergence, read-out: Plant response rating (0 to 100), Lambsquarters) of the same compound?
**A.** Its pest or weed control at 125 g/ha is 98%.

**Q.** And the pest or weed control at 250 g/ha ([7]; 250 g ai/ha, postemergence, read-out: Plant response rating (0 to 100), Lambsquarters)?
**A.** The pest or weed control at 250 g/ha was 98%.

**Q.** What about the pest or weed control at 31 g/ha ([7]; Postemergence, 31 g ai/ha, scale 0 to 100 (0 no effect, 100 complete control), 13 to 15 days, read-out: Plant response rating, Lambsquarters) of the same compound?
**A.** The pest or weed control at 31 g/ha was 80%.

**Q.** What about the pest or weed control at 62 g/ha ([7]; Postemergence, 62 g ai/ha, scale 0 to 100 (0 no effect, 100 complete control), read-out: Plant response rating, Lambsquarters) of the same compound?
**A.** Its pest or weed control at 62 g/ha is 95%.

**Q.** What about the plant injury at 125 g/ha [8, 15] of the same compound?
**A.** Its plant injury at 125 g/ha is 0%.

**Q.** What about the plant injury at 500 g/ha [8, 16] of the same compound?
**A.** Its plant injury at 500 g/ha is 20%.

**Q.** And the pest or weed control at 125 g/ha ([9]; 125 g ai/ha, postemergence, read-out: Plant response rating (0 to 100), Nutsedge, Yellow)?
**A.** Its pest or weed control at 125 g/ha is 15%.

**Q.** And the pest or weed control at 250 g/ha ([9]; 250 g ai/ha, postemergence, read-out: Plant response rating (0 to 100), Nutsedge, Yellow)?
**A.** Its pest or weed control at 250 g/ha is 15%.

**Q.** What about the pest or weed control at 31 g/ha ([9]; Postemergence, 31 g ai/ha, scale 0 to 100 (0 no effect, 100 complete control), 13 to 15 days, read-out: Plant response rating, Nutsedge, Yellow) of the same compound?
**A.** Its pest or weed control at 31 g/ha is 5%.

**Q.** What about the pest or weed control at 62 g/ha ([9]; Postemergence, 62 g ai/ha, scale 0 to 100 (0 no effect, 100 complete control), read-out: Plant response rating, Nutsedge, Yellow) of the same compound?
**A.** The pest or weed control at 62 g/ha was 5%.

**Q.** And the pest or weed control at 125 g/ha ([10]; 125 g ai/ha, postemergence, read-out: Plant response rating (0 to 100), Ragweed)?
**A.** The pest or weed control at 125 g/ha was 55%.

**Q.** What about the pest or weed control at 250 g/ha ([10]; 250 g ai/ha, postemergence, read-out: Plant response rating (0 to 100), Ragweed) of the same compound?
**A.** The pest or weed control at 250 g/ha was 85%.

**Q.** And the pest or weed control at 31 g/ha ([10]; Postemergence, 31 g ai/ha, scale 0 to 100 (0 no effect, 100 complete control), 13 to 15 days, read-out: Plant response rating, Ragweed)?
**A.** Its pest or weed control at 31 g/ha is 15%.

**Q.** What about the pest or weed control at 62 g/ha ([10]; Postemergence, 62 g ai/ha, scale 0 to 100 (0 no effect, 100 complete control), read-out: Plant response rating, Ragweed) of the same compound?
**A.** The pest or weed control at 62 g/ha was 45%.

**Q.** And the pest or weed control at 125 g/ha ([11]; 125 g ai/ha, postemergence, read-out: Plant response rating (0 to 100), Ryegrass, Italian)?
**A.** The pest or weed control at 125 g/ha was 10%.

**Q.** What about the pest or weed control at 250 g/ha ([11]; 250 g ai/ha, postemergence, read-out: Plant response rating (0 to 100), Ryegrass, Italian) of the same compound?
**A.** Its pest or weed control at 250 g/ha is 25%.

**Q.** What about the pest or weed control at 31 g/ha ([11]; Postemergence, 31 g ai/ha, scale 0 to 100 (0 no effect, 100 complete control), 13 to 15 days, read-out: Plant response rating, Ryegrass, Italian) of the same compound?
**A.** Its pest or weed control at 31 g/ha is 0%.

**Q.** What about the pest or weed control at 62 g/ha ([11]; Postemergence, 62 g ai/ha, scale 0 to 100 (0 no effect, 100 complete control), read-out: Plant response rating, Ryegrass, Italian) of the same compound?
**A.** The pest or weed control at 62 g/ha was 5%.

**Q.** And the pest or weed control at 125 g/ha ([12]; 125 g ai/ha, 0 to 100 scale where 0 is no effect and 100 is complete control, read-out: Plant response rating, Crabgrass, Large)?
**A.** Its pest or weed control at 125 g/ha is 30%.

**Q.** And the pest or weed control at 500 g/ha ([12]; 500 g ai/ha, 0 to 100 scale, 0 no effect, 100 complete control, read-out: Plant response rating Crabgrass, Large)?
**A.** The pest or weed control at 500 g/ha was 80%.

**Q.** What about the Soybean plant response rating (crop injury, 0-100 scale) at 125 g/ha ([13]; 125 g ai/ha, postemergence, read-out: Plant response rating (0 to 100), Soybean) of the same compound?
**A.** Its Soybean plant response rating (crop injury, 0-100 scale) at 125 g/ha is 95%.

**Q.** And the Soybean plant response rating (crop injury, 0-100 scale) at 250 g/ha ([13]; 250 g ai/ha, postemergence)?
**A.** The Soybean plant response rating (crop injury, 0-100 scale) at 250 g/ha was 95%.

**Q.** And the Soybean plant response rating (crop injury, 0-100 scale) at 31 g/ha ([13]; Postemergence, 31 g ai/ha, scale 0 to 100 (0 no effect, 100 complete control), 13 to 15 days)?
**A.** Its Soybean plant response rating (crop injury, 0-100 scale) at 31 g/ha is 55%.

**Q.** And the Soybean plant response rating (crop injury, 0-100 scale) at 62 g/ha ([13]; Postemergence, 62 g ai/ha, scale 0 to 100 (0 no effect, 100 complete control))?
**A.** The Soybean plant response rating (crop injury, 0-100 scale) at 62 g/ha was 90%.

**Q.** What about the pest or weed control at 125 g/ha ([14]; 125 g ai/ha, postemergence, read-out: Plant response rating (0 to 100), Blackgrass) of the same compound?
**A.** Its pest or weed control at 125 g/ha is 20%.

**Q.** And the pest or weed control at 250 g/ha ([14]; 250 g ai/ha, postemergence, read-out: Plant response rating (0 to 100), Blackgrass)?
**A.** The pest or weed control at 250 g/ha was 45%.

**Q.** What about the pest or weed control at 31 g/ha ([14]; Postemergence, 31 g ai/ha, scale 0 to 100 (0 no effect, 100 complete control), 13 to 15 days, read-out: Plant response rating, Blackgrass) of the same compound?
**A.** The pest or weed control at 31 g/ha was 0%.

**Q.** What about the pest or weed control at 62 g/ha ([14]; Postemergence, 62 g ai/ha, scale 0 to 100 (0 no effect, 100 complete control), read-out: Plant response rating, Blackgrass) of the same compound?
**A.** Its pest or weed control at 62 g/ha is 5%.
